{"source": "patent US12240810B2", "about": "“Chiral-substituted poly-N-vinylpyrrolidinones and complexes with bimetallic nanoclusters and uses thereof in asymmetric oxidation reactions” (Kansas State University Research Foundation, priority 2019, dated 2025)", "origin": "cited, not measured here", "system": "Staphylococcus aureus", "conditions": "antibacterial activity, background statement on the natural product", "data": [{"smiles": "CC=CCCCC[C@@]1(O)[C@H](C)C(=O)N2CCC[C@@]21CO", "note": "[compound 113, (−)-Penibruguieramine A]", "values": [{"measurement": "MIC value", "result": 6.4, "unit": "µg/mL"}]}]}
